Tests used:
Format in all cases: functional, cell-based
[1] = system: MCF7; test: In vitro inhibitory concentration of compound against human cancer MACL MCF-7 cell line was determined
[2] = system: MEXF514; test: In vitro inhibitory concentration of compound against human cancer MEXF 514 cell line was determined
[3] = system: RXF 944; test: In vitro inhibitory concentration of compound against human cancer RXF 944 cell line was determined

Structure (SMILES)	IC50 [1] [nM]	IC50 [2] [nM]	IC50 [3] [nM]
CC(=O)O[C@H]1C(=O)[C@@]2(C)C([C@H](OC(=O)c3ccccc3)C3(O)C[C@H](OC(=O)[C@H](OC(=O)c4ccc(C(C)=O)cc4)[C@@H](NC(=O)c4ccccc4)c4ccccc4)C(C)=C1C3(C)C)[C@]1(OC(C)=O)COC1C[C@@H]2O (stereo not given in full)	130	220	90
CC(=O)O[C@H]1C(=O)[C@@]2(C)[C@H]([C@H](OC(=O)c3ccccc3)[C@]3(O)C[C@H](OC(=O)[C@H](O)[C@@H](NC(=O)c4ccccc4)c4ccccc4)C(C)=C1C3(C)C)[C@]1(OC(C)=O)CO[C@@H]1C[C@@H]2O [PACLITAXEL]		1030	50

Reference: ChEMBL document CHEMBL1145872, “Synthesis and in vitro efficacy of acid-sensitive poly(ethylene glycol) paclitaxel conjugates” (Bioorg Med Chem Lett, 2003)
